The values below come from US20190105260A1, “COMPOSITIONS AND METHODS TO PROMOTE WOUND HEALING” (The Regents of the University of California, priority 2016, published 2019).

Structures are written as SMILES.

For assay [1], the system named is bone marrow-derived macrophages (BMDMs), M2 polarization. The assay is described as follows: In vitro macrophage polarization (RT-PCR, flow cytometry). Type of assay: cell-based, mouse. How it is done:
Bone marrow described macrophages from wild-type C57/B6J mice were harvested and cultured under polarizing conditions towards M0 (no polarization; normal culture medium), M1 (using LPS and IFNγ) or M2 (using IL-4 and IL-13). […] M2 activation status was assessed using RT-PCR (normalized to HSP90) for CD206, Ym-1 and Arg-1. M1 activation status was assessed using TNFα (A, B). C: At day 7 of macrophage maturation, adherent bone marrow derived monocytes in culture were identified with macrophage markers (CD11b and F4/80) using flow cytometry. After 24 hours, CD206 expression was identified in treated group (C). Results were then quantified and reported (D). Data presented as average±SEM. ** p<0.01.
Wild type C57BL/6 male and female mice were used. Bone marrow-derived (BMD) cells were isolated from mouse femurs and tibias. ACK solution (Thermo Fisher catalog 50-983-220) was used for 5 minutes at 37° C. to lyse red blood cells. BMD macrophages (BMDMs) were matured with (20 ng/mL) M-CSF (R&D) for 7 days. On day 7, BMDM phenotype was confirmed with flow cytometry by CD11b and F4/80 markers (Biolegend). Following maturation, BMDMs were either polarized towards M1 lineage with 10 ng/ml LPS (Sigma Aldrich) and 100 ng/ml IFN-g (R&D) or M2 lineage with 20 ng/ml IL-4 (PeproTech) and IL-13 (R&D) in cRPMI (1×RPMI (Cellgro), 10% FBS, 1× sodium pyruvate (GIBCO), 1× penicillin/streptomycin (GIBCO) at 37° C. for 24 hours. Non-polarized BMDMs and M1-polarized BMDMs were used as experimental controls for polarization procedure. M2-polarized BMDMs were co-treated with either PBS or FLX and/or 100 nM NAN-190 or 1 μM Ketanserin. Cells were either collected after 4 hours by scraping and stored in buffer RLT (Qiagen) at −80° C. or were read with flow cytometry after 24 hours and data were appropriately compensated and analyzed by FlowJo.
RT-PCR was performed using PowerUp SYBR Green Master Mix (Thermo/Applied Biosystems). Data was analyzed using the ΔΔCt method and normalized using geometric mean of the housekeeping genes (GAPDH, Hsp90, 18S rRNA). Fold change is shown relative to control groups.

Assay [2] relates to HaCaT human keratinocyte cell line. The assay is described as follows: Single cell migration assay. It counts as cell-based. The note with it: HaCaT cells. The source says: FIGS. 2A-C illustrate that serotonin (5-HT) increases keratinocyte migratory speed and re-epithelialization in a scratch wound ex vivo model, likely through the ERK-STAT3-NFkB pathway.
The test system of another assay is BMSC. The assay is described as follows: BMSC migration assay. It counts as cell-based. The settings on record: 10 uM 5HT vs untreated BMSC; BMSC pooled from 3 donors.
Setting [3] is: 100 nM fluoxetine, after 4 hours of polarization.

As to `CNCCC(Oc1ccc(C(F)(F)F)cc1)c1ccccc1` (stereo not drawn) [fluoxetine], in assay [1] (setting [3]), the “Arg-1 transcripts (RT-PCR)” value is “significant increased”, the “CD206 transcripts (RT-PCR)” value was “significant increased” and the “Ym-1 transcripts (RT-PCR)” value is “significant increased”. Further, in assay [1] (after 24 hours of M2 polarization), the “M2 polarization of naïve macrophages (CD206+ cells, flow cytometry)” value is on record as “enhanced”.

Consider `NCCc1c[nH]c2ccc(O)cc12` [serotonin], for which, in assay [2], the “keratinocyte migration (single cell migration)” value is reported as “increases”. The BMSC migratory speed entry with BMSC was “significantly increased”.
